Results taken from ChEMBL document CHEMBL1156364, “Chondropsin D, a new 37-membered-ring macrolide lactam from the marine sponge Chondropsis species” (J Nat Prod, 2001).
In brackets after ≈: the same amount, converted by molar mass.

Key:
[1] = Cytotoxicity against human LOX cells after 2 days by XTT assay; type: functional, cell-based; conditions: 48 h
MOLT-4 = assay: Cytotoxicity against human MOLT4 cells after 2 days by XTT assay; type: functional, cell-based; conditions: MOLT-4, 48 h

Question: Which results are given for COC(=O)C(C)(C)C(O)C(C)C(=O)C(C)(C)/C=C/C(=O)NC(C(O)C(C)C)C(O)C(C)/C=C(\C)C(O)C(C)CCC(O)C(C)C(=O)NC1C(C)OC(=O)C(C(O)C(=O)O)NC(=O)/C=C/C=C/CC/C=C/C=C/C[C@@H]2C[C@@H](C)C[C@@H](CC(O)C(C)C(O)/C(C)=C/C(C)C(O)/C(C)=C/CC(OC(=O)CC(O)C(=O)O)C(C)C1O)O2 (some centres not stated) [CHONDROPSIN D]?
Answer: IC50 [1]: 0.01 µg/mL (≈ 0.00629 µM); IC50 (MOLT-4): 0.25 µg/mL (≈ 0.157 µM)
